Experimental data published in patent publication US11840686B2, “Modulation of prekallikrein (PKK) expression” (Ionis Pharmaceuticals, Inc., priority 2013, dated 2023).
Strand notation (5' to 3'): a small letter for the sugar, then the base; units joined by * are phosphorothioate-linked, units joined directly phosphodiester-linked; [ ] holds rarer units or linkages, { } end groups; capitals alone tell only the bases. e = 2'-O-(2-methoxyethyl) (MOE); k = constrained ethyl (cEt); [5mC] = 5-methylcytosine; d = 2'-deoxy (DNA)

Test system: human PKK mRNA
Assay: Antisense inhibition of human PKK mRNA in HepaRG cells, 1,000 nM, MOE/deoxy/cEt oligonucleotides (Example 3)
Type: cell-based
Procedure, shortened: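 HepaRG cells at 20,000 per well electroporated with 1,000 nM 16-mer MOE/cEt/deoxy gapmers (phosphorothioate, 5-methylcytosine). After about 24 h, PKK mRNA measured by qRT-PCR with primer probe set RTS3454, normalized to RIBOGREEN total RNA. Reported as percent inhibition versus untreated cells.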

[1] = HepaRG cells, electroporation with 1,000 nM antisense oligonucleotide, approximately 24 hours, primer probe set RTS3454, relative to untreated control cells, experiment of Table 23
[2] = Table 21 experiment, HepaRG cells, electroporation with 1,000 nM antisense oligonucleotide, approx. 24 hours, PKK mRNA by RT-PCR (RTS3454), relative to untreated control cells
[3] = Table 27, HepaRG cells, 1,000 nM antisense oligonucleotide, human PKK mRNA
[4] = PKK mRNA, HepaRG cells, 1,000 nM antisense oligonucleotide, Table 31
[5] = Table 28, HepaRG cells, 1,000 nM antisense oligonucleotide, human PKK mRNA
[6] = Table 30, human PKK mRNA, HepaRG cells, 1,000 nM antisense oligonucleotide
[7] = HepaRG cells, electroporation with 1,000 nM antisense oligonucleotide, approx. 24 hours, PKK mRNA by RT-PCR (RTS3454), relative to untreated control cells, Table 26 experiment
[8] = Table 19, HepaRG cells, electroporation with 1,000 nM antisense oligonucleotide, approximately 24 hours, PKK mRNA by RT-PCR (RTS3454), relative to untreated control cells
[9] = HepaRG cells, 1,000 nM antisense oligonucleotide, Table 29
[10] = Table 20, HepaRG cells, electroporation with 1,000 nM antisense oligonucleotide, approximately 24 hours, PKK mRNA by RT-PCR (RTS3454), relative to untreated control cells
[11] = Table 22 experiment, HepaRG cells, electroporation with 1,000 nM antisense oligonucleotide, approx. 24 hours, PKK mRNA by RT-PCR (RTS3454), relative to untreated control cells
[12] = HepaRG cells, electroporation with 1,000 nM antisense oligonucleotide, approx. 24 hours, PKK mRNA by RT-PCR (RTS3454), relative to untreated control cells, Table 25 experiment

In the case of “547940 (eT*eT*kT*d[5mC]*dT*dT*dT*dG*dT*dG*dA*d[5mC]*dT*k[5mC]*kG*eA; antisense) [compound 547940]”, the “% inhibition” value [1] is reported as 71%.
With “547831 (e[5mC]*eT*kG*d[5mC]*dA*d[5mC]*d[5mC]*dT*dG*dT*dT*d[5mC]*dG*kA*kT*eG; antisense) [compound 547831]” the “% inhibition” value [2] was 49%.
In the case of “547811 (eA*e[5mC]*k[5mC]*dT*d[5mC]*dA*dT*d[5mC]*dT*dG*dG*d[5mC]*dA*kG*kT*eA; antisense) [compound 547811]”, the “% inhibition” value [2] is reported as 49%.
For “548333 (antisense eG*eA*k[5mC]*dT*dG*dT*dG*d[5mC]*dT*dA*dT*d[5mC]*d[5mC]*kG*k[5mC]*eT) [compound 548333]”, the “% inhibition” value [3] was 58%.
“547832 (eA*e[5mC]*kT*dG*d[5mC]*dA*d[5mC]*d[5mC]*dT*dG*dT*dT*d[5mC]*kG*kA*eT; antisense) [compound 547832]” was tested, and the “% inhibition” value [2] was 59%.
In the case of “547821 (e[5mC]*eA*kA*dA*d[5mC]*d[5mC]*dT*dT*dT*dT*d[5mC]*dT*d[5mC]*k[5mC]*kA*eT; antisense) [compound 547821]”, the “% inhibition” value [2] is reported as 44%.
With “548640 (antisense eG*eA*kA*dT*dG*dT*dT*dG*d[5mC]*dT*dG*dT*d[5mC]*k[5mC]*k[5mC]*eA) [compound 548640]” the “% inhibition” value [4] was 32%.
With “548498 (antisense e[5mC]*e[5mC]*kG*dA*dT*dA*dA*d[5mC]*dA*dG*dA*d[5mC]*d[5mC]*kG*kG*e[5mC]) [compound 548498]” the “% inhibition” value [5] was 71%.
With “548402 (e[5mC]*e[5mC]*k[5mC]*d[5mC]*dA*dT*d[5mC]*dT*d[5mC]*dG*dA*dA*dG*k[5mC]*k[5mC]*e[5mC]; antisense) [compound 548402]” the “% inhibition” value [6] was 45%.
“548288 (eG*eA*kA*dT*dA*dG*d[5mC]*dA*dA*dG*d[5mC]*dT*d[5mC]*k[5mC]*kA*eA; antisense) [compound 548288]” was tested, and the “% inhibition” value [7] was 64%.
“548248 (antisense eT*eG*k[5mC]*dG*dA*dT*dT*dT*dT*d[5mC]*d[5mC]*dA*dT*kG*k[5mC]*eA) [compound 548248]” was tested, and the “% inhibition” value [7] was 13%.
With “548444 (antisense e[5mC]*eT*kA*dT*dG*dT*d[5mC]*dA*d[5mC]*dT*dG*dT*dA*k[5mC]*k[5mC]*eT) [compound 548444]” the “% inhibition” value [6] was 43%.
With “548080 (e[5mC]*e[5mC]*k[5mC]*dT*dT*d[5mC]*dT*dT*dT*dA*dT*dA*dG*k[5mC]*k[5mC]*eA; antisense) [compound 548080]” the “% inhibition” value [8] was 0%.
“548230 (eT*eA*k[5mC]*dT*d[5mC]*dA*dT*dT*dG*dT*dT*dG*dT*kG*kT*eG; antisense) [compound 548230]” was tested, and the “% inhibition” value [7] was 10%.
With “548577 (eA*eA*kT*d[5mC]*dT*dG*d[5mC]*dA*d[5mC]*d[5mC]*dT*dG*dG*k[5mC]*kA*eG; antisense) [compound 548577]” the “% inhibition” value [9] was 42%.
With “548525 (antisense eG*eT*k[5mC]*dT*dA*dA*d[5mC]*dT*dG*dG*d[5mC]*d[5mC]*dT*kG*kG*e[5mC]) [compound 548525]” the “% inhibition” value [5] was 2%.
For “548551 (antisense e[5mC]*eG*kG*d[5mC]*d[5mC]*dA*dA*dT*dG*dG*dG*dA*dA*kA*kG*eG) [compound 548551]”, the “% inhibition” value [9] was 25%.
For “548632 (antisense eG*eG*kA*dG*dA*dT*dA*dT*d[5mC]*dA*dG*dG*dT*kG*k[5mC]*eA) [compound 548632]”, the “% inhibition” value [4] was 45%.
In the case of “547937 (eT*eG*kT*dG*dA*d[5mC]*dT*d[5mC]*dG*dA*dT*dT*dT*kT*k[5mC]*e[5mC]; antisense) [compound 547937]”, the “% inhibition” value [1] is reported as 56%.
In the case of “548542 (antisense eG*e[5mC]*kG*d[5mC]*d[5mC]*dA*dT*d[5mC]*d[5mC]*dT*dT*d[5mC]*dA*kA*kT*e[5mC]) [compound 548542]”, the “% inhibition” value [9] is reported as 7%.
“548458 (eA*e[5mC]*k[5mC]*dT*dA*dT*dA*dA*d[5mC]*dT*dA*dT*dA*kA*k[5mC]*eA; antisense) [compound 548458]” was tested, and the “% inhibition” value [6] was 0%.
With “547898 (e[5mC]*eT*kT*dT*dA*dA*dT*dA*dG*dG*d[5mC]*dA*dA*kT*kT*eG; antisense) [compound 547898]” the “% inhibition” value [10] was 0% and the “% inhibition” value [11] was 28%.
With “548328 (antisense eG*eG*kT*d[5mC]*d[5mC]*dT*dT*dG*dA*dA*d[5mC]*d[5mC]*d[5mC]*k[5mC]*kG*eT) [compound 548328]” the “% inhibition” value [3] was 68%.
For “548548 (antisense eG*e[5mC]*kT*dT*dG*dT*dA*dG*dA*dA*dG*dG*dG*kA*kT*eT) [compound 548548]”, the “% inhibition” value [9] was 54%.
In the case of “548466 (e[5mC]*eG*kT*d[5mC]*dA*d[5mC]*dT*dG*dT*dA*d[5mC]*d[5mC]*dT*kA*kT*eA; antisense) [compound 548466]”, the “% inhibition” value [5] is reported as 71%.
With “548685 (antisense eT*eA*kG*dT*d[5mC]*d[5mC]*dA*d[5mC]*dT*dA*d[5mC]*dA*d[5mC]*kA*kG*e[5mC]) [compound 548685]” the “% inhibition” value [4] was 24%.
In the case of “548345 (antisense e[5mC]*eT*kA*dA*d[5mC]*dT*d[5mC]*d[5mC]*dA*dT*d[5mC]*dA*d[5mC]*kT*kG*e[5mC]) [compound 548345]”, the “% inhibition” value [3] is reported as 55%.
In the case of “548470 (eG*eG*kT*dG*dG*dA*dA*dT*dG*dT*d[5mC]*dA*dT*kG*kG*e[5mC]; antisense) [compound 548470]”, the “% inhibition” value [5] is reported as 56%.
With “547799 (eG*eA*kA*dG*d[5mC]*dT*dA*d[5mC]*dA*dT*d[5mC]*d[5mC]*d[5mC]*k[5mC]*kA*e[5mC]; antisense) [compound 547799]” the “% inhibition” value [2] was 41%.
For “547828 (e[5mC]*e[5mC]*kT*dG*dT*dT*d[5mC]*dG*dA*dT*dG*dT*dA*k[5mC]*kT*eT; antisense) [compound 547828]”, the “% inhibition” value [2] was 63%.
For “548553 (antisense e[5mC]*e[5mC]*k[5mC]*dG*dA*dA*dG*dA*dG*dT*d[5mC]*dA*dA*kG*kT*e[5mC]) [compound 548553]”, the “% inhibition” value [9] was 46%.
With “548546 (antisense eG*e[5mC]*k[5mC]*d[5mC]*dA*dA*dG*d[5mC]*d[5mC]*dT*dA*d[5mC]*dA*kT*kG*e[5mC]) [compound 548546]” the “% inhibition” value [9] was 35%.
“548523 (antisense eG*eG*kT*dA*dA*dA*dT*d[5mC]*d[5mC]*dA*dT*d[5mC]*d[5mC]*k[5mC]*k[5mC]*eT) [compound 548523]” was tested, and the “% inhibition” value [5] was 44%.
For “547834 (eA*eA*kA*d[5mC]*dT*dG*d[5mC]*dA*d[5mC]*d[5mC]*dT*dG*dT*kT*k[5mC]*eG; antisense) [compound 547834]”, the “% inhibition” value [2] was 63%.
For “547919 (eG*eA*kA*d[5mC]*d[5mC]*d[5mC]*dT*dG*dG*d[5mC]*dA*dA*d[5mC]*kA*kT*e[5mC]; antisense) [compound 547919]”, the “% inhibition” value [10] was 41% and the “% inhibition” value [11] was 73%.
“547810 (e[5mC]*e[5mC]*kT*d[5mC]*dA*dT*d[5mC]*dT*dG*dG*d[5mC]*dA*dG*kT*kA*eT; antisense) [compound 547810]” was tested, and the “% inhibition” value [2] was 60%.
“548613 (antisense eT*eG*kG*d[5mC]*dG*dG*dG*dA*dT*d[5mC]*dG*dG*dT*kG*kG*eT) [compound 548613]” was tested, and the “% inhibition” value [4] was 39%.
With “548357 (antisense eG*eA*k[5mC]*dG*dA*d[5mC]*dT*dG*d[5mC]*d[5mC]*d[5mC]*dT*dG*kT*kG*e[5mC]) [compound 548357]” the “% inhibition” value [3] was 69%.
With “548152 (e[5mC]*eG*kG*dG*d[5mC]*dT*dT*d[5mC]*dA*dG*d[5mC]*d[5mC]*dA*kG*kA*e[5mC]; antisense) [compound 548152]” the “% inhibition” value [12] was 32%.
“548083 (eA*eG*kG*dG*dA*d[5mC]*d[5mC]*dA*d[5mC]*d[5mC]*dT*dG*dA*kA*kT*e[5mC]; antisense) [compound 548083]” was tested, and the “% inhibition” value [8] was 0%.
In the case of “548268 (antisense eT*eG*kT*dG*dT*d[5mC]*dT*dA*dG*dG*dG*dA*dG*kT*kT*eG) [compound 548268]”, the “% inhibition” value [7] is reported as 52%.
In the case of “548508 (antisense eG*e[5mC]*kA*d[5mC]*d[5mC]*dA*d[5mC]*d[5mC]*dA*dT*dG*d[5mC]*dG*kG*kT*eT) [compound 548508]”, the “% inhibition” value [5] is reported as 43%.
With “547983 (antisense eG*eA*kA*dT*d[5mC]*dA*dT*d[5mC]*dT*dT*dT*dG*dT*kG*k[5mC]*eA) [compound 547983]” the “% inhibition” value [1] was 56%.
With “548375 (eT*e[5mC]*kG*dA*d[5mC]*dT*dT*d[5mC]*dT*d[5mC]*d[5mC]*dT*dG*kT*k[5mC]*eT; antisense) [compound 548375]” the “% inhibition” value [3] was 27%.
With “548371 (e[5mC]*eG*kA*dT*dG*dA*dG*dT*dT*dG*dG*dG*d[5mC]*kA*kG*eG; antisense) [compound 548371]” the “% inhibition” value [3] was 57%.
In the case of “548157 (eA*eT*kT*dG*dT*d[5mC]*dA*dG*d[5mC]*d[5mC]*d[5mC]*d[5mC]*dT*kG*kG*eT; antisense) [compound 548157]”, the “% inhibition” value [12] is reported as 7%.
With “548284 (antisense e[5mC]*e[5mC]*k[5mC]*d[5mC]*d[5mC]*dT*dG*dT*dA*dG*dT*dT*dG*kG*k[5mC]*eT) [compound 548284]” the “% inhibition” value [7] was 35%.
